Experiment [1] concerns Tyrosine-protein kinase ABL1 (Homo sapiens), P00519 [T315I]. Particulars: at 10 µM.
The target in experiment [2] is T1, Tyrosine-protein kinase JAK3 (Homo sapiens) (UniProt P52333).
T1 sequence (whole entry): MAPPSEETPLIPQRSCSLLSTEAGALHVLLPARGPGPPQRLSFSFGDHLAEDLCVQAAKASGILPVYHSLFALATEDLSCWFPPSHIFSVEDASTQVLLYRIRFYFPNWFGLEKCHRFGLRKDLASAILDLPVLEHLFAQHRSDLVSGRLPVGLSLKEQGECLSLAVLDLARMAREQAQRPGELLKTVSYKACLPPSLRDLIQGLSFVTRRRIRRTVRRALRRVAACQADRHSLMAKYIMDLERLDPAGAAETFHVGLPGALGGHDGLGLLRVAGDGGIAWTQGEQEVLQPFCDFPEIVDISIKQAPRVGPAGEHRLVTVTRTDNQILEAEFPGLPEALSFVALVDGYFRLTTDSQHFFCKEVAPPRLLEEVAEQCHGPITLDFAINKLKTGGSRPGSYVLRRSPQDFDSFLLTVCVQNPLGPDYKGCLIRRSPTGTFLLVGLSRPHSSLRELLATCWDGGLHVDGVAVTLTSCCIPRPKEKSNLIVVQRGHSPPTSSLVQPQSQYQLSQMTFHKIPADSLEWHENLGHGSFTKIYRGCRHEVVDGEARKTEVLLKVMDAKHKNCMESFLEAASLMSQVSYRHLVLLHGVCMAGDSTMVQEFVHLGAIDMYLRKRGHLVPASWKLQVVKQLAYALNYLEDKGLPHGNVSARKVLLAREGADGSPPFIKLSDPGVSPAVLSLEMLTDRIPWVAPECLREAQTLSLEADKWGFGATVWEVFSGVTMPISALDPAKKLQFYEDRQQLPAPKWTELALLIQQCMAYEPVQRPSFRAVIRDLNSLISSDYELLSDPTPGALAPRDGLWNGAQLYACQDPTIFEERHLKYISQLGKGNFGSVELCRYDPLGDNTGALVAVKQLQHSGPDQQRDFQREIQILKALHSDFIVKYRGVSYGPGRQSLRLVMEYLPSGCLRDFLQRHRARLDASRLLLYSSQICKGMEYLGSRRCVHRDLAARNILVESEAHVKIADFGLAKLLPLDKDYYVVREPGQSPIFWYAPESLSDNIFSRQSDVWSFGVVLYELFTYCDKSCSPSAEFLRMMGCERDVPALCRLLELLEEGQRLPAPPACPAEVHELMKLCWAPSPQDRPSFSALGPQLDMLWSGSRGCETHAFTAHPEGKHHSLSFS
The experiment in a line: Selectivity interaction (KinomeScan (DiscoverX)) EUB0000045b JAK3.

Experiment [3] deals with T2, Mitogen-activated protein kinase kinase kinase kinase 2 (Homo sapiens) (UniProt Q12851).
T2 sequence (whole entry): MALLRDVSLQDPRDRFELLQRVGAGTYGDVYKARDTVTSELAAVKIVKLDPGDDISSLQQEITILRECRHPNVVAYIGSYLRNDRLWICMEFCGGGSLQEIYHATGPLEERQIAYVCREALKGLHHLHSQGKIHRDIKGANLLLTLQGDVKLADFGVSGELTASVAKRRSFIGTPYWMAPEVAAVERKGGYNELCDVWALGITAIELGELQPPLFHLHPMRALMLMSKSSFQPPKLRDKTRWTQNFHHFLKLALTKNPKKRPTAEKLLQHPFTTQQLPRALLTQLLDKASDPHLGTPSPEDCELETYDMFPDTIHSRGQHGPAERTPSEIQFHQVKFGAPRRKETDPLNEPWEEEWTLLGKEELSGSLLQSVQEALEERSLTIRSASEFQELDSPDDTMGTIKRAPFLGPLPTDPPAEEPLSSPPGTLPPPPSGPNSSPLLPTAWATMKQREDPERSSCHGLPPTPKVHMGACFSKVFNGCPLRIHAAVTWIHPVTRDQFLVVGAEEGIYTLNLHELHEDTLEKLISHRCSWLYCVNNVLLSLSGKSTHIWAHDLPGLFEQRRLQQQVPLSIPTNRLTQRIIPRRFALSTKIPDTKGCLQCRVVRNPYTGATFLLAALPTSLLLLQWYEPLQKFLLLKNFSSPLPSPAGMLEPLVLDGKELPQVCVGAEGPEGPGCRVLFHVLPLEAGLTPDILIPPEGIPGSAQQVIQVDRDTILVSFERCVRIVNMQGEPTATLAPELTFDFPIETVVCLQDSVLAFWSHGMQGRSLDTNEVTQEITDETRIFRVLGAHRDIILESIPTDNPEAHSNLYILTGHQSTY
Put plainly: Selectivity interaction (Kinase panel (Z-LYTE Assay)) EUB0001632a MAP4K2. Particulars: at 10 µM.

The target in experiment [4] is Proto-oncogene tyrosine-protein kinase Src (Homo sapiens, UniProt P12931). The experiment in a line: Selectivity interaction (SelectScreen profiling (Invitrogen)) EUB0000607a SRC. Particulars: at 2 µM.
For experiment [5], the target named is T3, Muscle, skeletal receptor tyrosine-protein kinase (Homo sapiens) (UniProt O15146).
T3 sequence (whole entry): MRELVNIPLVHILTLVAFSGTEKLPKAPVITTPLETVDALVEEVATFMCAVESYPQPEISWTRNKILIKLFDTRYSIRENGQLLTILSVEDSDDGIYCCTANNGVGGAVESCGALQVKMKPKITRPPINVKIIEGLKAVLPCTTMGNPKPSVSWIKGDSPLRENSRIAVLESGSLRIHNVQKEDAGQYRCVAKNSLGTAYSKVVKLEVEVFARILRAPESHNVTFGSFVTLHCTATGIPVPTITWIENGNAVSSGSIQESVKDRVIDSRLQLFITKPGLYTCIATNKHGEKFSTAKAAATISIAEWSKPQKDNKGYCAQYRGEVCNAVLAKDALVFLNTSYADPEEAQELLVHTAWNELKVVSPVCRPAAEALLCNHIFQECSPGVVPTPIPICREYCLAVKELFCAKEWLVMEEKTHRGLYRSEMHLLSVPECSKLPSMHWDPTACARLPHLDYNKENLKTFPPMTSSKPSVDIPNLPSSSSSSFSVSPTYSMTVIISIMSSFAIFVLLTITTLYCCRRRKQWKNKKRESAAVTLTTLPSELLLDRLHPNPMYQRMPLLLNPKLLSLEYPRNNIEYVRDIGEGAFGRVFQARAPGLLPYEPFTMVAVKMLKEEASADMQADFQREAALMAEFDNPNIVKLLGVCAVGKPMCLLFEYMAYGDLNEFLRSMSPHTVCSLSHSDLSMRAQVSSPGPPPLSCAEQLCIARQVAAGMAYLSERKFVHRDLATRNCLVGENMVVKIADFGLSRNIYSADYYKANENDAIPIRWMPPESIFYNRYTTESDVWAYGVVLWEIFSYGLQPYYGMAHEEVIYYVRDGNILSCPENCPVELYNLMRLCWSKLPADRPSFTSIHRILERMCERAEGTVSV
The experiment in a line: Selectivity interaction (SelectScreen profiling (Invitrogen)) EUB0000607a MUSK. Particulars: at 2 µM.

In experiment [6] the target is Serine/threonine-protein kinase PAK 6 (Homo sapiens) (UniProt Q9NQU5). The experiment in a line: Selectivity interaction (KinomeScan (DiscoverX)) EUB0001619a PAK6. Particulars: at 1 µM.

Each structure is given as a SMILES string.

Chain of Proto-oncogene tyrosine-protein kinase Src (P12931 2-536 limits assumed): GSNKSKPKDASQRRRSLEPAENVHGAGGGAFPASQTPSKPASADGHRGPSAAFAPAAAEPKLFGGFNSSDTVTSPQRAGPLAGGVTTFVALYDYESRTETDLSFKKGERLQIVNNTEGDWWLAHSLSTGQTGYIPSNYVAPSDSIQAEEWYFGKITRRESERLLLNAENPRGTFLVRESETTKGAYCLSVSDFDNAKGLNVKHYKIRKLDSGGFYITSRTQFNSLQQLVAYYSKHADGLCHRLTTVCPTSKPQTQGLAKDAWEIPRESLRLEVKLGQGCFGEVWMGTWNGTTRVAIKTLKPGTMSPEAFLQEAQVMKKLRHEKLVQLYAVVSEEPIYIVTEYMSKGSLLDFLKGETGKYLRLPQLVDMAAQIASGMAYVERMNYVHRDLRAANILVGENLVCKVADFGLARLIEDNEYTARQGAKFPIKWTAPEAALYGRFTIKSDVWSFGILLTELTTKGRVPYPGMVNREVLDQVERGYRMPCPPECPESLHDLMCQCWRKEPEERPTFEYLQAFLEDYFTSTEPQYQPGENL
Chain of Serine/threonine-protein kinase PAK 6 (Homo sapiens) (Q9NQU5 whole entry, looked up): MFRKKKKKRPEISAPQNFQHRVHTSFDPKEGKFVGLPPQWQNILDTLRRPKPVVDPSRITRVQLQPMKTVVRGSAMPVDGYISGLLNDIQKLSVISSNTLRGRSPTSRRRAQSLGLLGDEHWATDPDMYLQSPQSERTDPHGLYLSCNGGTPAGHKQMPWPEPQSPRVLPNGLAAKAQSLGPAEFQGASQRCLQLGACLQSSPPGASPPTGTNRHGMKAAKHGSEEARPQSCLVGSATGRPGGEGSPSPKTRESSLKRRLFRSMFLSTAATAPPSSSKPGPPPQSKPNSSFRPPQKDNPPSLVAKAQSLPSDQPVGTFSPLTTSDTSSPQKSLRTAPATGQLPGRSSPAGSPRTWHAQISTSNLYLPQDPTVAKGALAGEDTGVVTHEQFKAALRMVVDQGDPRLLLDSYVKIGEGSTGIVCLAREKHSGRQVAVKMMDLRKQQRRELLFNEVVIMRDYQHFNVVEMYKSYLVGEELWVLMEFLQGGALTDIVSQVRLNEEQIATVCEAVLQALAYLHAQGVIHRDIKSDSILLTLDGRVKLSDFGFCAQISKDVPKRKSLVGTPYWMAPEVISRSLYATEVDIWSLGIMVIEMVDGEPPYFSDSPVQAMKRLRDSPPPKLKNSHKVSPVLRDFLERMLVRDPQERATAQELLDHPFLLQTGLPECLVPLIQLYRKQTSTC

As to `CCN(CC)CCCCNc1ncc2cc(-c3cc(OC)cc(OC)c3)c(NC(=O)NC(C)(C)C)nc2n1`, in experiment [1], the % of control was found to be 100%.
Regarding `C=CC(=O)Nc1cc(-n2c(=O)ccc3cnc4ccc(-c5ccc(NS(C)(=O)=O)cc5)cc4c32)ccc1C`, the values for the % of control in experiment [2] (at 1 µM) and in experiment [2] (at 10 µM) were 6.6% and 0.6%, respectively.
As for `Cn1cc(-n2cnc3c(NCc4nc5cc(Cl)c(Cl)cc5[nH]4)nc(N4CCOCC4)nc32)cn1`, in experiment [3], the % of control is -4.87%.
For `CNC(=O)Nc1ccc(-c2nc(N3CC4CCC(C3)O4)c3cnn(C4CCC5(CC4)OCCO5)c3n2)cc1`, the figures for the % of inhibition in experiment [4] and in experiment [5] were 3% and 15%, respectively.
On to `N#Cc1cccc(-c2c[nH]c3ncnc(N4CCOCC4)c23)c1`, for which, in experiment [6], the % of control came to 78%.

The values above are taken from ChEMBL document CHEMBL5465560, “Selectivity Literature for EUbOPEN Chemogenomic Library” (2024).
